Like-named read-outs stand apart in the source and are kept apart here.
What was measured:
[1] = biological target: A2A adenosine receptors (PC12 cells) (Rattus norvegicus, UniProt P30543); assay: cAMP accumulation in PC12 cells
Description: Effects of adenosine receptor agonists on cAMP content in intact PC12 cells. […] Cyclic AMP levels were determined as described under “Methods”. Values represent mean±SEM of results of triplicate samples from three experiments. […] Values represent mean±SEM of triplicate determinants from one representative experiment.
Briefly, PC12 cells were rinsed three times with Hanks' balanced saline solution (HBSS), detached using a cell lifter, and pelleted by centrifugation at 500 g for 5 minutes. Aliquots of the cell suspension (0.1 to 0.2 mg protein) were placed in microfuge tubes with 250 μL of HBSS containing rolipram (50 μmol/L) to inhibit phosphodiesterases that degrade cAMP_and warmed to 37° C. Appropriate drugs were added to the cell suspensions, and incubations were allowed to continue for 10 minutes. Tubes were placed in a boiling water bath for 5 minutes to terminate the incubation. The samples were then cooled to room temperature, diluted by the addition of 1 mL of 10 mmol/L Tris-HCl buffer at pH 7.4, and then centrifuged for 2 minutes at 13000 g.
The samples were then incubated at 4° C. for 16 hours. At the end of the incubation, 70 μL of a 50% (wt/vol) hydroxyapatite suspension was added to each tube. The suspensions were gently agitated and then incubated for 10 minutes at 4° C. Antibody-bound radioactivity adsorbed to hydroxyapatite was collected onto glass fiber filters by vacuum filtration using a Brandel cell harvester. Radioactivity retained by the filter was counted in a gamma counter. […] The amount of cAMP present in samples was calculated based on a standard curve using known amounts of cAMP.

[2] = biological target: T1, human A1 adenosine receptors (Homo sapiens, UniProt P30542); assay: Competitive radioligand binding, [3H]CPX, CHO-hA1AdoR membranes; settings: for Ki: [3H]CPX; for affinity for the A1 receptor expressed by CHO-K1 cells: in words
T1 construct: expressed in transfected cells
T1 sequence (P30542 1-326): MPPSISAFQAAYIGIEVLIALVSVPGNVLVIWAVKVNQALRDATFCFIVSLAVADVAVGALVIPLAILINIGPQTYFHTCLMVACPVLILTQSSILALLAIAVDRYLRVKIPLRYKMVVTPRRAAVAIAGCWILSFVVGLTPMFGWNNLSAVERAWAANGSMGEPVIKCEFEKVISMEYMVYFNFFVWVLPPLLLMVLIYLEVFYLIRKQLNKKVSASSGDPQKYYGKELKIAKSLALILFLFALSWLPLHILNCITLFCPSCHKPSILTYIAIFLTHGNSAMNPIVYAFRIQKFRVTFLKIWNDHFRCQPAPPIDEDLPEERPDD
Description: The cell suspensions were homogenized and centrifuged at 48,000g for 15 minutes. The pellets were washed three times by re-suspension in ice-cold Tris-HCl buffer and centrifugation. The final pellet was re-suspended in Tris-HCl, aliquoted and frozen at −80° C. until used for receptor binding assays.

[3] = Coronary and peripheral artery blood flow velocity, HR and MAP in anesthetized closed-chest dogs; type: in vivo; design: APV: unit not given here; settings: for APV / MAP / HR: CVT-3146 (1 ug/kg)
Description: Mongrel dogs (either sex, 17-21 kg; n=6) were obtained from a local vendor (Barton, Oxford, N.J.). Blood flow velocity in the coronary and cranial circumflex arteries was measured using Doppler transducer-tipped guide wires 0.014″ in diameter (FloWire®, model 1400J) purchased from Cardiometrics, Inc., Mountain View, Calif. For the positioning of the FloWire, a Judkins left coronary guiding catheter (JL3.5, 8F; Cordis) was used. Vascular arterial angiography was performed using Hypaque-76 contrast fluid (Bracco Diagnostics, Inc., Princeton, N.J.; Lot #9H28899) and a mobile fluoroscopic unit (Philips, BV 29). Systemic arterial blood pressure was measured using an electronic transducer-tipped catheter (Millar).
Following the administration of heparin (20 U/kg+100 U/hr), the pressure transducer-tipped catheter was introduced through the left femoral artery and positioned in the descending aorta. The Doppler FloWire was introduced through the right femoral artery. A peripheral vein was cannulated for the administration of all drugs. […] The sequence of positioning of the Doppler catheter was reversed in consecutive experiments. […] All parameters were allowed to recover (>30 min) to their respective baseline values between two consecutive drug administrations. […] The effect of adenosine on both coronary and peripheral artery APV was studied in five of the six dogs.
The following parameters were monitored and recorded: Average peak coronary and peripheral artery blood flow velocity (APV), mean arterial blood pressure (MAP) (mmHg), and sinus cycle length (SCL; msec). Differences in measure parameters were tested for statistical significance using ANOVA and Student's t test corrected for multiple measurements. Data are expressed as the mean±SEM.

[4] = biological target: A2A adenosine receptors (Rattus norvegicus, UniProt P30543); assay: Competitive radioligand binding, [3H]ZM241385, PC12 cell membranes
Description: Rat pheochromocytoma PC12 cells were obtained from the American Type Culture Collection and grown in DMEM with 5% fetal bovine serum, 10% horse serum, 0.5 mmol/L L-glutamine, 100 U/mL penicillin, 0.1 mg/l mL streptomycin, and 2.5 μg/mL amphotericin.
Cell membranes were harvested from the cell lines by detaching cells from the culture plates into ice-cold 50 mmol/L Tris-HCl buffer (pH 7.4). The cell suspensions were homogenized and centrifuged at 48,000g for 15 minutes. The pellets were washed three times by re-suspension in ice-cold Tris-HCl buffer and centrifugation. The final pellet was re-suspended in Tris-HCl, aliquoted and frozen at −80° C. until used for receptor binding assays.
Briefly, membrane suspensions, obtained from cells expressing either adenosine receptor subtypes A1, A2A, A2B or A3were incubated for 2 hours at room temperature in 50 mmol/L Tris-HCl buffer (pH 7.4) containing ADA (1U/mL). […] At the end of the incubation, free radioligand was separated from membrane-bound radioligand by filtration through Whatman GF/C glass fiber filters using a Brandel tissue harvester (Gaithersburg, Md.). Triplicate determinations were performed for each concentration of unlabelled compound.

[5] = test system: rat isolated perfused heart; assay: Reversal time of coronary vasodilation in rat isolated perfused hearts; settings: bolus, rat isolated perfused heart;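 note: each agonist bolused at its minimal concentration giving equal maximal coronary conductance rise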
[6] = read-out: pKi ± SEM, CHO-hA1AdoR (converted)

Sequence of A2A adenosine receptors (P30543 whole entry, the tested form may be a part): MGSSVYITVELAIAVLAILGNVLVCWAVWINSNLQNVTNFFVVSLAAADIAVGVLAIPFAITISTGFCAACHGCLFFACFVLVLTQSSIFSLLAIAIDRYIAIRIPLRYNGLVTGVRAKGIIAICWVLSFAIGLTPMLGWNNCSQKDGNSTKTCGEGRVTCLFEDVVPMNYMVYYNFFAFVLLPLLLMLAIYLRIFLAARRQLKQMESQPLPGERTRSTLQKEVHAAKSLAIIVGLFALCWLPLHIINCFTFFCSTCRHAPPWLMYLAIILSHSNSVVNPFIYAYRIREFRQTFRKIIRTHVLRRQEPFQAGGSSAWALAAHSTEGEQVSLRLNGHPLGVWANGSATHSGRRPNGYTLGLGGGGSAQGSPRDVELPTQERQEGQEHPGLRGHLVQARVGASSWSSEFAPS
Sequence of A2A adenosine receptors (PC12 cells) (P30543 whole entry): as the sequence (P30543 whole entry, the tested form may be a part) above

CNC(=O)c1cnn(-c2nc(N)c3ncn(C4O[C@@H](CO)[C@H](O)[C@@H]4O)c3n2)c1 (stereo partly shown) [CVT-3146]
EC50 [1]: 0.291 µM | Ki ([2]; read-out: Ki, CHO-hA1AdoR): > 16.5 µM | Ki [2, 6]: 25.7 µM | affinity for the A1 receptor expressed by CHO-K1 cells [2]: relatively low affinities | time for all parameters to return to baseline post injection ([3]; CVT-3146 1 μg/kg, adenosine 200 or 300 μg/kg iv bolus, anesthetized dogs): ≤ 5 min | APV ([3]; Coronary, time 1′, Baseline 49 ± 7): 100 ± 12 | MAP ([3]; Coronary, time 1′, Baseline 128 ± 7): 112 ± 7 mmHg | HR ([3]; Coronary, time 1′, Baseline 171 ± 8): 186 ± 7 | APV ([3]; Coronary, time 1.5′, Baseline 49 ± 7): 97 ± 11 | MAP ([3]; Coronary, time 1.5′, Baseline 128 ± 7): 110 ± 7 mmHg | HR ([3]; Coronary, time 1.5′, Baseline 171 ± 8): 186 ± 7 | APV ([3]; Coronary, time 2′, Baseline 49 ± 7): 88 ± 11 | MAP ([3]; Coronary, time 2′, Baseline 128 ± 7): 110 ± 7 mmHg | HR ([3]; Coronary, time 2′, Baseline 171 ± 8): 185 ± 7 | APV ([3]; Coronary, time 3′, Baseline 49 ± 7): 81 ± 11 | MAP ([3]; Coronary, time 3′, Baseline 128 ± 7): 110 ± 6 mmHg | HR ([3]; Coronary, time 3′, Baseline 171 ± 8): 185 ± 7 | APV ([3]; Coronary, time 4′, Baseline 49 ± 7): 75 ± 11 | MAP ([3]; Coronary, time 4′, Baseline 128 ± 7): 110 ± 6 mmHg | HR ([3]; Coronary, time 4′, Baseline 171 ± 8): 183 ± 8 | APV ([3]; Coronary, time 5′, Baseline 49 ± 7): 72 ± 11 | MAP ([3]; Coronary, time 5′, Baseline 128 ± 7): 112 ± 6 mmHg | HR ([3]; Coronary, time 5′, Baseline 171 ± 8): 183 ± 8 | APV ([3]; Coronary, time 6′, Baseline 49 ± 7): 65 ± 11 | MAP ([3]; Coronary, time 6′, Baseline 128 ± 7): 113 ± 6 mmHg | HR ([3]; Coronary, time 6′, Baseline 171 ± 8): 182 ± 8 | APV ([3]; Coronary, time 7′, Baseline 49 ± 7): 63 ± 12 | MAP ([3]; Coronary, time 7′, Baseline 128 ± 7): 115 ± 6 mmHg | HR ([3]; Coronary, time 7′, Baseline 171 ± 8): 181 ± 8 | APV ([3]; Coronary, time 8′, Baseline 49 ± 7): 55 ± 11 | MAP ([3]; Coronary, time 8′, Baseline 128 ± 7): 117 ± 6 mmHg | HR ([3]; Coronary, time 8′, Baseline 171 ± 8): 180 ± 8 | APV ([3]; Coronary, time 9′, Baseline 49 ± 7): 55 ± 11 | MAP ([3]; Coronary, time 9′, Baseline 128 ± 7): 119 ± 6 mmHg | HR ([3]; Coronary, time 9′, Baseline 171 ± 8): 177 ± 9 | APV ([3]; Coronary, time 10′, Baseline 49 ± 7): 53 ± 11 | MAP ([3]; Coronary, time 10′, Baseline 128 ± 7): 120 ± 6 mmHg | HR ([3]; Coronary, time 10′, Baseline 171 ± 8): 176 ± 9 | APV ([3]; Coronary, time 10″, Baseline 49 ± 7): 84 ± 4 | HR ([3]; Coronary, time 10″, Baseline 171 ± 8): 177 ± 8 | APV ([3]; Coronary, time 20″, Baseline 49 ± 7): 106 ± 8 | MAP ([3]; Coronary, time 20″, Baseline 128 ± 7): 116 ± 9 mmHg | HR ([3]; Coronary, time 20″, Baseline 171 ± 8): 186 ± 9 | APV ([3]; Coronary, time 30″, Baseline 49 ± 7): 109 ± 10 | MAP ([3]; Coronary, time 30″, Baseline 128 ± 7): 117 ± 7 mmHg | HR ([3]; Coronary, time 30″, Baseline 171 ± 8): 188 ± 7 | APV ([3]; Peripheral, time 1′, Baseline 34 ± 8): 42 ± 4 | MAP ([3]; Peripheral, time 1′, Baseline 116 ± 8): 102 ± 6 mmHg | HR ([3]; Peripheral, time 1′, Baseline 162 ± 9): 182 ± 7 | APV ([3]; Peripheral, time 1.5′, Baseline 34 ± 8): 42 ± 4 | MAP ([3]; Peripheral, time 1.5′, Baseline 116 ± 8): 99 ± 7 mmHg | HR ([3]; Peripheral, time 1.5′, Baseline 162 ± 9): 184 ± 7 | APV ([3]; Peripheral, time 2′, Baseline 34 ± 8): 40 ± 4 | MAP ([3]; Peripheral, time 2′, Baseline 116 ± 8): 98 ± 7 mmHg | HR ([3]; Peripheral, time 2′, Baseline 162 ± 9): 187 ± 8 | APV ([3]; Peripheral, time 3′, Baseline 34 ± 8): 40 ± 4 | MAP ([3]; Peripheral, time 3′, Baseline 116 ± 8): 97 ± 7 mmHg | HR ([3]; Peripheral, time 3′, Baseline 162 ± 9): 187 ± 8 | APV ([3]; Peripheral, time 4′, Baseline 34 ± 8): 39 ± 4 | MAP ([3]; Peripheral, time 4′, Baseline 116 ± 8): 100 ± 6 mmHg | HR ([3]; Peripheral, time 4′, Baseline 162 ± 9): 186 ± 8 | APV ([3]; Peripheral, time 5′, Baseline 34 ± 8): 37 ± 5 | MAP ([3]; Peripheral, time 5′, Baseline 116 ± 8): 101 ± 6 mmHg | HR ([3]; Peripheral, time 5′, Baseline 162 ± 9): 185 ± 8 | APV ([3]; Peripheral, time 10″, Baseline 34 ± 8): 34 ± 4 | MAP ([3]; Peripheral, time 10″, Baseline 116 ± 8): 114 ± 9 mmHg | HR ([3]; Peripheral, time 10″, Baseline 162 ± 9): 167 ± 6 | APV ([3]; Peripheral, time 20″, Baseline 34 ± 8): 38 ± 4 | MAP ([3]; Peripheral, time 20″, Baseline 116 ± 8): 107 ± 8 mmHg | HR ([3]; Peripheral, time 20″, Baseline 162 ± 9): 177 ± 7 | APV ([3]; Peripheral, time 30″, Baseline 34 ± 8): 41 ± 4 | MAP ([3]; Peripheral, time 30″, Baseline 116 ± 8): 111 ± 6 mmHg | HR ([3]; Peripheral, time 30″, Baseline 162 ± 9): 183 ± 8 | Ki [4]: 1.73 µM

CCCCCn1cc(-c2nc(N)c3ncn(C4O[C@@H](CO)[C@H](O)[C@@H]4O)c3n2)cn1 (stereo partly shown) [CVT-3033]
EC50 [1]: 0.487 µM | shift to the right of the CGS21680 concentration-response curve ([1]; CVT-3033 1 μM, PC12 cells): ~5 fold | Emax ([1]; PC-12, read-out: maximal response of cAMP accumulation, % of that induced by CGS21680): 63% | agonist behaviour in PC12 cells ([1]; cAMP accumulation): partial A2A agonists | t0.5, time to 50% reversal of the increase in coronary conductance [5]: 3.4 ± 0.5 min | t0.9, time to 90% reversal of the increase in coronary conductance [5]: 8.4 ± 2.2 min | Ki ([2]; read-out: Ki, CHO-hA1AdoR): 5.84 µM | Ki [2, 6]: 5.75 µM | affinity for the A1 receptor expressed by CHO-K1 cells [2]: relatively low affinities | Ki ([4]; binding affinity to A2A in PC12 cells (Ki)): 3.62 µM | Ki ([4]; pKi ± SEM, PC12 cells (A2A), [3H]ZM241385): 3.55 µM

Reference: patent publication US20050175535A1 (CV Therapeutics, Inc., priority 2000, published 2005)
